{
  "source": "ChEMBL document CHEMBL5303765",
  "about": "“Data for DCP probe BAY-7081” (2023)",
  "key": {"[1]": {"target": "T1, Serine/threonine-protein kinase tousled-like 1 (Homo sapiens) (UniProt Q9UKI8)", "T1 sequence (whole entry)": "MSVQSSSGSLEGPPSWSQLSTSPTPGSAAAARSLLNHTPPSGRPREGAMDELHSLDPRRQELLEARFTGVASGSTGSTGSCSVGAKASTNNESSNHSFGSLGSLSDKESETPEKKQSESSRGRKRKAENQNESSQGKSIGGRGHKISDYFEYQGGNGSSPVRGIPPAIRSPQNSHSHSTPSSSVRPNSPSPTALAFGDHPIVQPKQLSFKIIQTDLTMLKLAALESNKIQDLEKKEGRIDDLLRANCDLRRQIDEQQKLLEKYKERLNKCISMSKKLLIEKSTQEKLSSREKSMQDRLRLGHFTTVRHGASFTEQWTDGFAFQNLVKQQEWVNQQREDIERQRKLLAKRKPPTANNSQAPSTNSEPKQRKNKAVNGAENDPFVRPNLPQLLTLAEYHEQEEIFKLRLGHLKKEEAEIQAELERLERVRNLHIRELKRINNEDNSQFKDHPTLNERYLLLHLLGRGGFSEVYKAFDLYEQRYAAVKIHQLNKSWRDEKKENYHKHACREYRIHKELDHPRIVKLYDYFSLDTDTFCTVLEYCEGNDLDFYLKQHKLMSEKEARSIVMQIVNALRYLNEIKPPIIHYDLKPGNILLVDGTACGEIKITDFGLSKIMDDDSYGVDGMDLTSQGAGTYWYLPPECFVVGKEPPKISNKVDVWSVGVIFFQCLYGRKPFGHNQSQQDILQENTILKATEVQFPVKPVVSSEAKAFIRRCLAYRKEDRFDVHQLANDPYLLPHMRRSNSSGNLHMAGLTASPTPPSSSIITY", "test": "TLK1 SGC Tm panel (DSF)", "settings": "for ΔTm: Compound concentration 10.0 uM"}, "[2]": {"target": "Bromodomain-containing protein 4 (Homo sapiens) (UniProt O60885)", "test": "BRD4 SGC Tm panel (DSF)", "settings": "for ΔTm: Compound concentration 10.0 uM"}, "[3]": {"target": "Kappa-type opioid receptor (Homo sapiens) (UniProt P41145)", "sequence (P41145 whole entry)": "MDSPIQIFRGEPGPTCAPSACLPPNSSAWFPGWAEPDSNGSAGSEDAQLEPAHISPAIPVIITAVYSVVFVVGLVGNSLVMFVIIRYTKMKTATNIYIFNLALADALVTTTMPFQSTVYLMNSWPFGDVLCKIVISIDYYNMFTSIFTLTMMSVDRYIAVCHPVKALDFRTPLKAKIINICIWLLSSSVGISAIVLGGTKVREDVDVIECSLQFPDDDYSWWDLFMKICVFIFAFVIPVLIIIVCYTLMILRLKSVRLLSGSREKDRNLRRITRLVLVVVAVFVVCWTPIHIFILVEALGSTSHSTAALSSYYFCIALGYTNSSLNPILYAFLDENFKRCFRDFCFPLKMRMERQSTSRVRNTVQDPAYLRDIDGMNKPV", "settings": "Compound concentration 10.0 uM"}, "[4]": {"target": "Sodium-dependent serotonin transporter (Homo sapiens) (UniProt P31645)", "sequence (P31645 whole entry, looked up)": "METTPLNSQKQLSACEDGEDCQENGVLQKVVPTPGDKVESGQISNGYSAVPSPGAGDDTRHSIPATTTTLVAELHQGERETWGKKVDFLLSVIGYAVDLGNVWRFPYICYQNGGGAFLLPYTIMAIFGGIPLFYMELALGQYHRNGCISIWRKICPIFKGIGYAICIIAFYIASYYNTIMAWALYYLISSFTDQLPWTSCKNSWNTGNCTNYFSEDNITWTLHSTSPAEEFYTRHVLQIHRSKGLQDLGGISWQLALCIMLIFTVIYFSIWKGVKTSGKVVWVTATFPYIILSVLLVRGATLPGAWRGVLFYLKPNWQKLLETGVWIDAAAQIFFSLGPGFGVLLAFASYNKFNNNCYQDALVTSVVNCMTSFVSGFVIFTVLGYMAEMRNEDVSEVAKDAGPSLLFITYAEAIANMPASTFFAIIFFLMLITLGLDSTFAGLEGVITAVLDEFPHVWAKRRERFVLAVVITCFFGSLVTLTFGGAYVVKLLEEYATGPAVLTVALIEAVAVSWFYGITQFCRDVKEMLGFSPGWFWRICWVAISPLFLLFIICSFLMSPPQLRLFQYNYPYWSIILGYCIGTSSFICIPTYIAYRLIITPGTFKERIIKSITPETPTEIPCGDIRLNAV", "settings": "Compound concentration 10.0 uM"}, "[5]": {"target": "High affinity cGMP-specific 3',5'-cyclic phosphodiesterase 9A (Mus musculus, UniProt O70628)", "sequence (O70628 whole entry)": "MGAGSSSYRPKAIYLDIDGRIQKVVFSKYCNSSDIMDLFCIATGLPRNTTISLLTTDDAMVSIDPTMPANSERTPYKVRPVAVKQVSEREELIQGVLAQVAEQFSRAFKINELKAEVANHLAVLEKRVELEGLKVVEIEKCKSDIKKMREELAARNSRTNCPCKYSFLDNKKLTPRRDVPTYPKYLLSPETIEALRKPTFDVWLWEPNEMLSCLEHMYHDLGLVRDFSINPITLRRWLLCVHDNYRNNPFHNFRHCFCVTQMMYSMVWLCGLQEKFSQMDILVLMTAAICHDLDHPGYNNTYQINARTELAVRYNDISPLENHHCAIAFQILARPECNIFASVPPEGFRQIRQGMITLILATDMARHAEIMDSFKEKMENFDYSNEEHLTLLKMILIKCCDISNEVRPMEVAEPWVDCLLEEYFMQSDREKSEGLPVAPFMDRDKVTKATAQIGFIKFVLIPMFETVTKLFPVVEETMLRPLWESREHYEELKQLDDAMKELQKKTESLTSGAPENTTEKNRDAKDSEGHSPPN", "test": "Cellular PDE9A assay", "assay_type": "functional"}, "[6]": {"target": "T2, Serine/threonine-protein kinase Nek2 (Homo sapiens) (UniProt P51955)", "T2 sequence (whole entry)": "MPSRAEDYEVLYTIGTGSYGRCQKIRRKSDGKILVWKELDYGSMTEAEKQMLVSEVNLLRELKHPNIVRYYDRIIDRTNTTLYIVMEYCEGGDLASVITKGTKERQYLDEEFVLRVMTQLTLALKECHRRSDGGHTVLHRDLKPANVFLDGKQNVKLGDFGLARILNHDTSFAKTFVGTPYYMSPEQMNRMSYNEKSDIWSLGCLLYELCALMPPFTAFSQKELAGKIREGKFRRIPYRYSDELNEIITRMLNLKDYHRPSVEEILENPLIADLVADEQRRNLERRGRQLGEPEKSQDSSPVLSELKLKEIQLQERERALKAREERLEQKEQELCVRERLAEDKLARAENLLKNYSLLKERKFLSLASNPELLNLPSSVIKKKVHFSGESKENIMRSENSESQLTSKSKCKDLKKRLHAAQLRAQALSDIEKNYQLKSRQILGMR", "test": "NEK2 SGC Tm panel (DSF)", "settings": "for ΔTm: Compound concentration 10.0 uM"}, "[7]": {"target": "D(1B) dopamine receptor (Homo sapiens) (UniProt P21918)", "sequence (P21918 whole entry)": "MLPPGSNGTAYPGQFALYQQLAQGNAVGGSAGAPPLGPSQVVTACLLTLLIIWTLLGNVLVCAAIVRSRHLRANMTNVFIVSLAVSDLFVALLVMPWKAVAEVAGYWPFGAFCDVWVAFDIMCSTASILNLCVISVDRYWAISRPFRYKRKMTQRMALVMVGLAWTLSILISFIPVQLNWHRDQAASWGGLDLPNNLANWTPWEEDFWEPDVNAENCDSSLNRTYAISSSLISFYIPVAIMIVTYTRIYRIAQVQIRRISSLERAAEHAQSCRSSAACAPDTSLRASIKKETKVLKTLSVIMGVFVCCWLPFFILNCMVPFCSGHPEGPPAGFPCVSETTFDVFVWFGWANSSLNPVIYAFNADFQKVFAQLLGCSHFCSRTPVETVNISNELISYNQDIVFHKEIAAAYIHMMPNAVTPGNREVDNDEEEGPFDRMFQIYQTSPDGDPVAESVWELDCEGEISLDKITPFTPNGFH", "settings": "Compound concentration 10.0 uM"}, "[8]": {"target": "Calcium/calmodulin-dependent protein kinase type 1D (Homo sapiens) (UniProt Q8IU85)", "sequence (Q8IU85 whole entry, looked up)": "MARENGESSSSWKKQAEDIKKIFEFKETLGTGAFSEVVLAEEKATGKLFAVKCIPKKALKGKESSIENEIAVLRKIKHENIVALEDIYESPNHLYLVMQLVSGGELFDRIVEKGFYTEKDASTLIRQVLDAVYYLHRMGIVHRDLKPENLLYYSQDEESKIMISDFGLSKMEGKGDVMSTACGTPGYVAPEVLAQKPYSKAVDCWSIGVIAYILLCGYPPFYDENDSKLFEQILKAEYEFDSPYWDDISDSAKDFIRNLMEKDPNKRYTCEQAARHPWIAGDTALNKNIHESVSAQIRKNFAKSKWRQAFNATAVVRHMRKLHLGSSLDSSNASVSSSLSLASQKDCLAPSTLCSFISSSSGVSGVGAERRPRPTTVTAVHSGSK", "test": "CAMK1D SGC Tm panel (DSF)", "settings": "for ΔTm: Compound concentration 10.0 uM"}, "[9]": {"target": "T3, Tyrosine-protein kinase Mer (Homo sapiens) (UniProt Q12866)", "T3 sequence (whole entry)": "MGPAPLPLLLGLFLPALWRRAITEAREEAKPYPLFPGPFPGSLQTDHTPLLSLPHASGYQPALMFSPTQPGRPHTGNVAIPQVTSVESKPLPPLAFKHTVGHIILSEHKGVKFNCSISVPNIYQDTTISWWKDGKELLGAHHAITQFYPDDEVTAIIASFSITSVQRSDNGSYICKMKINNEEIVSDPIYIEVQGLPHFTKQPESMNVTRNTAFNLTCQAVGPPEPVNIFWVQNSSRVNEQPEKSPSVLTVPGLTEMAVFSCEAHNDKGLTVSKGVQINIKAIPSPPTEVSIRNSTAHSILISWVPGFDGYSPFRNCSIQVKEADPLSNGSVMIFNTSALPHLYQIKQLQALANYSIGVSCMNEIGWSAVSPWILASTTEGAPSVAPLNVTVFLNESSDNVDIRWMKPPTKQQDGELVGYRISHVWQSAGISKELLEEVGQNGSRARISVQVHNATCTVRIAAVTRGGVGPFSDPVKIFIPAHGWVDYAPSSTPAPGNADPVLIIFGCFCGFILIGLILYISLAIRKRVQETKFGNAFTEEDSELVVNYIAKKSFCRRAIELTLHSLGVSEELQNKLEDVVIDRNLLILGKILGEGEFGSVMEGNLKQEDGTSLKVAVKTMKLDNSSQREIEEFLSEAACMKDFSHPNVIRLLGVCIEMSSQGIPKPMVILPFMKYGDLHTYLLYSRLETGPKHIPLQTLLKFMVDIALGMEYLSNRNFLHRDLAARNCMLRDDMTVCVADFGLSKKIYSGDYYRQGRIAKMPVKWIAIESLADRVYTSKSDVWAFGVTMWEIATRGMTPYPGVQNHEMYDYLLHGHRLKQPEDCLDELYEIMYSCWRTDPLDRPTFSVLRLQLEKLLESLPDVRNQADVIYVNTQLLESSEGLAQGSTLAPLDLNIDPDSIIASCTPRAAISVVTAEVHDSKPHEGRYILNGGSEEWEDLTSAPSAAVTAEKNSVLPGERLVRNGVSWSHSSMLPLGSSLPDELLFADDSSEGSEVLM", "test": "MERTK SGC Tm panel (DSF)", "settings": "for ΔTm: Compound concentration 10.0 uM"}, "[10]": {"target": "Fibroblast growth factor receptor 1 (Homo sapiens) (UniProt P11362)", "sequence (P11362 22-822 limits assumed)": "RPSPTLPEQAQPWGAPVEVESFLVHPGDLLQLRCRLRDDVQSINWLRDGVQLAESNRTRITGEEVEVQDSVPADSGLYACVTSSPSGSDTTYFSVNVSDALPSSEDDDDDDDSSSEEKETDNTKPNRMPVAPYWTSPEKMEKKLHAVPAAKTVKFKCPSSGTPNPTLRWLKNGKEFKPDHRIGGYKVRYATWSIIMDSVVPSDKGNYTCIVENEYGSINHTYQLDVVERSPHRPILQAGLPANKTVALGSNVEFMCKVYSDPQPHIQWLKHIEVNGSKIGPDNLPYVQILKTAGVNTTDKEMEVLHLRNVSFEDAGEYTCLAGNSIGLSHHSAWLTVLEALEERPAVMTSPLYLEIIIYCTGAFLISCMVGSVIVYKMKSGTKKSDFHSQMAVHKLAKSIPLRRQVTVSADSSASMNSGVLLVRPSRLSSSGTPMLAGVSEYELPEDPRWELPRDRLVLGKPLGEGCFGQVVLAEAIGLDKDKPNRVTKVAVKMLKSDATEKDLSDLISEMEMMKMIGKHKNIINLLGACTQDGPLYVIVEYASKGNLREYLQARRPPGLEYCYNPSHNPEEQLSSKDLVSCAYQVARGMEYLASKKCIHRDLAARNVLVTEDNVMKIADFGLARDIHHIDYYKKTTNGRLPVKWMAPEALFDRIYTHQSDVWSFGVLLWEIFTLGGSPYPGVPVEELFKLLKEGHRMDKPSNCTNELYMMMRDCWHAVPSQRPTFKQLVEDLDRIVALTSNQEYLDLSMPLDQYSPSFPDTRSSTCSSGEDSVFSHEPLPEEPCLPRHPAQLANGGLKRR", "test": "FGFR1 SGC Tm panel (DSF)", "settings": "for ΔTm: Compound concentration 10.0 uM"}, "[11]": {"target": "Sigma non-opioid intracellular receptor 1 (Homo sapiens) (UniProt Q99720)", "sequence (Q99720 whole entry)": "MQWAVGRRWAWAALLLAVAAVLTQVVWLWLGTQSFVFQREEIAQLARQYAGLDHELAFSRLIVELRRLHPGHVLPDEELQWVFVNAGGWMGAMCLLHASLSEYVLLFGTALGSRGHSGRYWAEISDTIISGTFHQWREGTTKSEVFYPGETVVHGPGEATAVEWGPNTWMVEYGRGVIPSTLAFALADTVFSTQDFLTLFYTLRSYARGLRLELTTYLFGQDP", "settings": "Compound concentration 10.0 uM"}, "[12]": {"target": "Casein kinase I isoform epsilon (Homo sapiens) (UniProt P49674)", "sequence (P49674 whole entry, looked up, canonical isoform)": "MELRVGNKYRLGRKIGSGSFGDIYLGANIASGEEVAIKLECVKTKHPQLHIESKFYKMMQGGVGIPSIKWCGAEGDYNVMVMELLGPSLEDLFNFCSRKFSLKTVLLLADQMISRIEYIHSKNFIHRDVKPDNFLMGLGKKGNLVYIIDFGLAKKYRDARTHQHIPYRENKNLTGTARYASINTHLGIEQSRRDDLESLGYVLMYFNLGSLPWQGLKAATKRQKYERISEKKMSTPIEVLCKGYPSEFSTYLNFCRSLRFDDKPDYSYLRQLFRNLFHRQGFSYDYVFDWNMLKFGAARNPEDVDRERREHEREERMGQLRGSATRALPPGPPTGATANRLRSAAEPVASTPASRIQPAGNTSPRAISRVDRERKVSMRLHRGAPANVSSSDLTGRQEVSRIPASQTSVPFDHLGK", "test": "CSNK1E SGC Tm panel (DSF)", "settings": "for ΔTm: Compound concentration 10.0 uM"}},
  "note": "The source made the active and inactive calls. The rule behind the calls is not given here.",
  "data": [
    {"smiles": "CCC[C@H]1CNCc2c1[nH]c(=O)c(C#N)c2N1CCC2(CC1)CC2", "values": [
      {"measurement": "delta Tm Staurosporine positive control", "setting": "[1]", "result": 9.74},
      {"measurement": "ΔTm", "setting": "[1]", "result": -1.34},
      {"measurement": "delta Tm Staurosporine positive control", "setting": "[2]", "result": 2.04},
      {"measurement": "ΔTm", "setting": "[2]", "result": 0.19},
      {"measurement": "inhibition", "setting": "[3]", "result": 34.3, "unit": "%"},
      {"measurement": "inhibition", "setting": "[4]", "result": 6.23, "unit": "%"},
      {"measurement": "EC50", "setting": "[5]", "result": "0.995 µM (active)"},
      {"measurement": "delta Tm Staurosporine positive control", "setting": "[6]", "result": 4.25},
      {"measurement": "ΔTm", "setting": "[6]", "result": -1.22},
      {"measurement": "inhibition", "setting": "[7]", "result": 2.11, "unit": "%"},
      {"measurement": "delta Tm Staurosporine positive control", "setting": "[8]", "result": 10.9},
      {"measurement": "ΔTm", "setting": "[8]", "result": -0.751},
      {"measurement": "delta Tm Staurosporine positive control", "setting": "[9]", "result": 6.4},
      {"measurement": "ΔTm", "setting": "[9]", "result": -0.991},
      {"measurement": "delta Tm Staurosporine positive control", "setting": "[10]", "result": 5.57},
      {"measurement": "ΔTm", "setting": "[10]", "result": -0.133},
      {"measurement": "inhibition", "setting": "[11]", "result": 18.1, "unit": "%"},
      {"measurement": "delta Tm Staurosporine positive control", "setting": "[12]", "result": 3.12},
      {"measurement": "ΔTm", "setting": "[12]", "result": -0.118}
    ]},
    {"smiles": "CCC[C@@H]1CNCc2c1[nH]c(=O)c(C#N)c2N1CCC2(CC1)CC2", "values": [
      {"measurement": "delta Tm Staurosporine positive control", "setting": "[1]", "result": 9.74},
      {"measurement": "ΔTm", "setting": "[1]", "result": -1.18},
      {"measurement": "delta Tm Staurosporine positive control", "setting": "[2]", "result": 2.04},
      {"measurement": "ΔTm", "setting": "[2]", "result": 0.857},
      {"measurement": "inhibition", "setting": "[3]", "result": 29.3, "unit": "%"},
      {"measurement": "inhibition", "setting": "[4]", "result": -1.15, "unit": "%"},
      {"measurement": "EC50", "setting": "[5]", "result": "> 10 µM (not active)"},
      {"measurement": "delta Tm Staurosporine positive control", "setting": "[6]", "result": 4.25},
      {"measurement": "ΔTm", "setting": "[6]", "result": -1.52},
      {"measurement": "inhibition", "setting": "[7]", "result": 4.19, "unit": "%"},
      {"measurement": "delta Tm Staurosporine positive control", "setting": "[8]", "result": 10.9},
      {"measurement": "ΔTm", "setting": "[8]", "result": -0.415},
      {"measurement": "delta Tm Staurosporine positive control", "setting": "[9]", "result": 6.4},
      {"measurement": "ΔTm", "setting": "[9]", "result": -0.932},
      {"measurement": "delta Tm Staurosporine positive control", "setting": "[10]", "result": 5.57},
      {"measurement": "ΔTm", "setting": "[10]", "result": -0.198},
      {"measurement": "inhibition", "setting": "[11]", "result": 13.2, "unit": "%"},
      {"measurement": "delta Tm Staurosporine positive control", "setting": "[12]", "result": 3.12},
      {"measurement": "ΔTm", "setting": "[12]", "result": -0.0146}
    ]}
  ]
}
